Experimental data taken from ChEMBL document CHEMBL1127193, “High-purity porcine pancreatic lipase: novel effects in catalyzing hydrolysis of esters derived from bicyclo[3.2.0]hept-2-EN-6-OLS” (Bioorg Med Chem Lett, 1993).

Tests used:
[1] = molecular target: T1, Pancreatic triacylglycerol lipase (Homo sapiens) (UniProt P16233); experiment: Tested for hydrolysis with 200 ug/mL of PPL (porcine pancreatic lipase) and sodium taurodeoxycholatet (NaTDC) at the compound dose of 0.2 g; conditions: Sus scrofa; target entry is the homologue from another species
T1 sequence (whole entry): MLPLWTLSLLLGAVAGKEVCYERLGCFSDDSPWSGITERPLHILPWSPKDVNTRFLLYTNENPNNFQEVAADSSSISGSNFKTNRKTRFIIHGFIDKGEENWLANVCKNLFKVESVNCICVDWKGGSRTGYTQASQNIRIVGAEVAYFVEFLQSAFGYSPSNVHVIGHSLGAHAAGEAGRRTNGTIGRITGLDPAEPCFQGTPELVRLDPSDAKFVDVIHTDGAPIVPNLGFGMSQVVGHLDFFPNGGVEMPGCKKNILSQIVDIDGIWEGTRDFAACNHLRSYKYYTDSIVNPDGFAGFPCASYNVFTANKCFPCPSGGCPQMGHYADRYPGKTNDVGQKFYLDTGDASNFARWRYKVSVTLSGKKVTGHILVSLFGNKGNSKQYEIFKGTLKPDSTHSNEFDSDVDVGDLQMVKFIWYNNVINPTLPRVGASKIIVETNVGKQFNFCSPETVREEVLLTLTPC

[2] = molecular target: T1, Pancreatic triacylglycerol lipase (Homo sapiens); experiment: Tested for hydrolysis with 20 ug/mL of PPL (porcine pancreatic lipase) and sodium taurodeoxycholatet (NaTDC) at the compound dose of 0.2 g; conditions: Sus scrofa; target entry is the homologue from another species
[3] = molecular target: T1, Pancreatic triacylglycerol lipase (Homo sapiens); experiment: Tested for hydrolysis with 0.2 ug/mL of PPL (porcine pancreatic lipase) at the compound dose of 0.2 g; conditions: Sus scrofa; target entry is the homologue from another species
[4] = molecular target: T1, Pancreatic triacylglycerol lipase (Homo sapiens); experiment: Tested for hydrolysis with 0.5 ug/mL of PPL (porcine pancreatic lipase), 1.5 ug/mL of colipase and 4 mM of sodium taurodeoxycholatet (NaTDC) at the compound dose of 0.2 g; conditions: Sus scrofa; target entry is the homologue from another species
[5] = molecular target: T1, Pancreatic triacylglycerol lipase (Homo sapiens); conditions: Sus scrofa
[6] = molecular target: T2, Pancreatic triacylglycerol lipase (Homo sapiens, UniProt P16233); experiment: Tested for hydrolysis with 0.2 ug/mL of PPL (porcine pancreatic lipase) at a compound dose of 0.2 g; set-up: species or system Sus scrofa; conditions: target entry is the homologue from another species
T2 sequence (P16233 whole entry): T1 sequence (whole entry)

[7] = molecular target: T2, Pancreatic triacylglycerol lipase; experiment: Tested for hydrolysis with 0.2 ug/mL of PPL (porcine pancreatic lipase), 1.5 ug/mL of colipase and 4 mM sodium taurodeoxycholatet (NaTDC) at a compound concentration of 0.2 g; set-up: species or system Sus scrofa; conditions: target entry is the homologue from another species
[8] = molecular target: T1, Pancreatic triacylglycerol lipase (Homo sapiens); conditions: Sus scrofa; remark: listed apart in the source
[9] = molecular target: T1, Pancreatic triacylglycerol lipase (Homo sapiens); experiment: Tested for hydrolysis with 80 ug/mL of PPL (porcine pancreatic lipase) at the compound dose of 0.1 g; conditions: Sus scrofa; target entry is the homologue from another species
[10] = molecular target: T1, Pancreatic triacylglycerol lipase (Homo sapiens); experiment: Tested for hydrolysis with 1.0 ug/mL of PPL (porcine pancreatic lipase) at the compound dose of 0.2 g; conditions: Sus scrofa; target entry is the homologue from another species
[11] = molecular target: T1, Pancreatic triacylglycerol lipase (Homo sapiens); experiment: Tested for hydrolysis with 1.0 ug/mL of PPL (porcine pancreatic lipase), 2.2 ug/mL of colipase and 4 mM of sodium taurodeoxycholatet (NaTDC) at the compound dose of 0.2 g; conditions: Sus scrofa; target entry is the homologue from another species

SMILES: CCCC(=O)O[C@H]1C[C@@H]2C=CC[C@H]12
- k cat [1]: < 5 s⁻¹
- k cat [2]: < 4 s⁻¹

SMILES: CCCC(=O)O[C@@H]1C[C@@H]2C=CC[C@@H]21
- k cat [3]: 3870 s⁻¹
- k cat [4]: 3560 s⁻¹

SMILES: CCCC(=O)OCC(COC(=O)CCC)OC(=O)CCC [TRIBUTYRIN]
- k cat [5]: 5100 s⁻¹
- kcat [6]: 1100 s⁻¹
- kcat [7]: < 1 s⁻¹
- k cat [8]: 4900 s⁻¹

SMILES: CC(=O)O[C@@H]1C[C@@H]2C=CC[C@@H]21
- k cat [9]: < 9 s⁻¹

SMILES: CCCC(=O)O[C@@H]1C[C@@H]2C=CC[C@@H]21.CCCC(=O)O[C@@H]1C[C@H]2C=CC[C@@H]21
- k cat [10]: 420 s⁻¹
- k cat [11]: 400 s⁻¹
